Data: patent US5229413A, “Compositions containing indole-2-carboxylate compounds for treatment of CNS disorders” (G. D. Searle & Co., priority 1992, dated 1993)
Read-outs that look alike come from different tables or passages of the source.

Tests used:
[1] = target: T1, strychnineinsensitive glycine recognition site (NMDA receptor-ion channel complex) (Rattus norvegicus, UniProt P35439); assay: Glycine binding assay, [3H]glycine, synaptic plasma membranes; details: 10 nM [3H]glycine, pH 7.4, rat forebrain SPM; read-out: Ki apparent, Gly
T1 construct: Synaptic plasma membranes (SPM) were prepared from rat forebrain; from tissue; host or cells: rat forebrain synaptic plasma membranes
Procedure: Synaptic plasma membranes (SPM) were prepared from rat forebrain and stored as previously described [J. B. Monahan and J. Michel, J. Neurochem, 48, 1699-1708 (1987)]. Frozen membranes were thawed and diluted 1:20 with 0.04% triton X-100 in 50 mM tris/acetate (pH 7.4). Following incubation at 37° C. for 30 min., the SPM were collected by centrifugation at 95,000 X g for 15 min. The pellet was resuspended in 50 mM tris/acetate (pH 7.4, triton-free) and hand-homogenized five times. The membranes were again centrifuged as above. The pellet was washed two additional times with 50 mM tris/acetate (without homogenization) and centrifuged. The final pellet was resuspended with homogenization in 50 mM tris/acetate.
In the general receptor binding assay procedure, 10 nM [^3 H]glycine was added to the appropriate concentration of the test compounds and the assay initiated by the addition of 0.2-0.4 mg of ice cold SPM. The assay, which was done in 1.5 ml centrifuge tubes, was adjusted to a total volume of 1.0 ml with all additions being made in 50 mM tris/ acetate, pH 7.4 at 4° C. After a 10 minute incubation at 2° C., the samples were centrifuged for 15 min. at 12,000 g (4° C.) in a Beckman Microfuge 12. The supernatant was aspirated and the tube tip containing the pelleted membranes cut off and agitated in 0.5 ml of Beckman BTS-450 tissue solubilizer for a minimum of 6 hours at room temperature. Beckman MP scintillation cocktail (5 ml) containing 7 ml/liter acetic acid was then added and the samples counted on a Beckman LS 5800 liquid scintillation counter with automatic corrections for quenching and counting efficiency. […] The binding of [^3 H]glycine to the SPM was analyzed using Scatchard and Hill transformations and the Ki for other compounds was determined using logit-log analysis. Calculations and regression analysis were performed using templates developed for Lotus 123 as previously described [Pullan et al, Id.].

hippocampal slice = assay: Epileptic hippocampal slice, 0% Mg+2-induced epilepsy; format: cell-based, Sprague-Dawley albino rat; details: Rattus norvegicus, 300 μM Compound No. 35, 0% Mg+2
Source text: Hippocampal slices (450 μ) were obtained from male Sprague-Dawley albino rats (100-325 g). The method of slice preparation has been detailed elsewhere [A. H. Ganong et al., Brain Res., 273, 170-174 (1983)]. Slices were stored in a humidified interface chamber at room temperature and bathed in artificial cerebrospinal fluid (ACSF) which contained (in mM): NaCl 124.0, KCl 5.0, KH2 PO4 1.0, NaHCOP3 26.4, CaCl2, 2.0, MgSO4 1.5 and D-glucose 10.0, and was equilibrated with 95% 02:5% CO2. When needed for study, slices were placed one at a time in a small submersion chamber maintained at 35° C. where they were continuously perfused at 1.0-2.0 ml/min. Fresh solutions reached the recording chamber within 20 seconds and the perfusate was completely changed over within a minute. Additional oxygen and stirring was provided by an air jet (95% O2 :5% CO2) directed at the surface of the ACSF. Standard electrophysiological techniques were employed. Extracellular recording electrodes were glass micropipettes filled with 2.0 M NaCl and broken back to 2.0 m.OMEGA. resistance. All recording was from the somatic region of CA1. […] Intracellular recording electrodes of 60-100 MQ resistance were filled with 2.5 M KAc. […] The Schaffer collateral/commissural fibers were stimulated with tungsten bipolar stimulating electrodes at a rate of 0.03 Hz. The resulting field EPSP (S/C-CA1 EPSP) and the DC potential were amplified by an Axoprobe 1 amplifier and were continuously monitored on a Tektronix 5111A storage oscilloscope and a Gould 2300 chart recorder with a Gould Waveform storage module. Epileptiform activity was induced by omission of Mg++ ions from the perfusate, which removes the Mg++ mediated voltage-dependent block of the NMDA. receptor [B. Ault et al., J. Physiol., 307, 413-428 (1980)], or by the addition of the GABA antagonist picrotoxin. Drugs were added to the perfusate and zero magnesium refers to solutions which contain no added magnesium. The amplitude of the stimulus evoked primary population spike was used to assess the effects of experimental manipulations on the efficacy of synaptic function.

[2] = target: T2, NMDA receptor (rat brain receptor expressed in Xenopus oocytes) (Rattus norvegicus, UniProt P35439); assay: Xenopus oocytes injected with rat cortex mRNA, blocking of glycine effects (voltage clamp); format: cell-based; details: 100 μM NMDA
T2 construct: PolyA+ RNA (mRNA) was extracted from adult male rat cortex; expressed in transfected cells; host or cells: Xenopus laevis oocytes microinjected with rat cortex poly(A)+ RNA
Procedure: PolyA+ RNA (mRNA) was extracted from adult male rat cortex using the refined guanidinium thiocyanate method developed by Han et al [J. H. Han et al., Biochemistry, 26, 1617-1625 (1987)] and the oligo (dT) cellulose chromatography procedure of Adiv and Leder [H. Aviv et al., Proc. Nat. Acad. Sci., 69, 1408-1412 (1972)]. Aliquots of mRNA (1.0 mg/ml water) were stored at -20° C.
Gravid adult female Xenopus laevis (Xenopus One, Ann Arbor, Mich. or NASCO, Ft. Atkinson, Wis.) were anaesthetized with 0.2% (w/v) Tricaine (3-amino benzoic acid ethyl ester; Sigma) and subjected to partial ovarectomy. Excised oocytes were then prepared and microinjected [N. W. Kleckner et al, Science 241 835-837 (1988)]. Oocytes were treated for one hour in Barth's solution (88.0 mM NaCl, 1.0 mM KCl, 2.4 mM NaHCO3, 0.41 mM CaCl2, 0.82 mM MgSO4, 10.0 μg/ml penicillin, 100.0 μg/ml streptomycin, 10.0 mM HEPES, pH 7.5) containing 1.5 mg/ml Neutral Protease (Beohringer Mannheim Biochemicals, Grade II). Oocytes were then placed in Barth's solution containing 100.0 mM sucrose and manually defolliculated with fine forceps. Defolliculated oocytes were then microinjected with approximately 50 ng of mRNA in Barth's solution at 16°-18° C.
Oocytes were assayed 2-8 days later for rat brain receptor expression via single electrode voltage. clamp (Axoclamp 2A, Axon Instruments) in a manner similar to that previously described [Kleckner et al, Id.]. […] Drugs were added to the perfusate and inward currents induced by agonist compounds were measured at peak steady state response. […] Antagonist compounds were perfused for a minimum of 3.0 minutes prior to subsequent agonist co-application. Data are expressed as percent maximal response (mean±S.E.M.). Half-maximal responses (EC50 's) and slopes for dose response data were determined from the least squares fit to the logistic regression equation.

[3] = target: N-methyl-D-aspartate (NMDA) receptor site; assay: Glutamate (NMDA) binding assay, L-[3H]glutamate, synaptic plasma membranes; details: L-[3H]glutamate 12.5 nM, pH 7.4, 0-4° C.; read-out: Ki apparent, NMDA
Procedure: The purpose of this assay is to determine the binding affinity of a compound of Formula I for the N-methyl-D-aspartate (NMDA) receptor site. This procedure was carried out as follows:
Synaptic plasma membranes (SPM) were prepared as previously described [Monahan, J. B. and Michel, J., "Identification and Characterization of an N-methyl-D-aspartate-specific L-[^3 H]glutamate Recognition Site in Synaptic Plasma Membranes, J. Neurochem., 48, 1699-1708 (1987)]. The SPM were stored at a concentration of 10-15 mg/ml in 0.32 M sucrose, 0.5 mM EDTA, 1 mM MgSO4, 5 mM Tris/SO4, pH 7.4, under liquid nitrogen. The identity and purity of the subcellular fractions were confirmed by both electron microscopy and marker enzymes. Protein concentrations were determined by using a modification of the method of Lowry [Ohnishi, S. T. and Barr, J. K., "A Simplified Method of Quantitating Proteins Using the Biuret and Phenol Reagents", Anal. Biochem., 86, 193-197 (1978)]. The SPM were thawed at room temperature, diluted twenty-fold with 50 mM Tris/acetate, pH 7.4, incubated at 37° C. for 30 minutes, and centrifuged at 100,000 g for 15 minutes. The dilution, incubation, and centrifugation was repeated a total of three times. This general method involved adding 12.5 nM of the L-[^3 H]glutamate radioligand to the appropriate concentration of the test compound and initiating the assay by the addition of ice cold SPM (0.2-0.45 mg). The binding assays were performed in 1.5 ml centrifuge tubes with the total volume adjusted to 1.0 ml. Additions of test compounds were made in 50 mM Tris/acetate, pH 7.4 and incubations were carried out at 0°-4° C. The incubation time for the NMDA binding assay was 10 minutes. To terminate the incubation, the samples were centrifuged for 15 minutes at 12,000 g and 4° C. in a Beckman Microfuge 12. The supernatant was aspirated and the pelleted membranes dissolved in Beckman Ready-Protein scintillation cocktail and the samples counted on a Beckman LS 5800 or 3801 liquid scintillation counter with automatic corrections for quenching and counting efficiency. Nonspecific binding was defined as the residual binding in the presence of 0.5 mM NMDA and was typically 15-25% of the total binding in the NMDA binding assay. Radioligand binding to the SPM was analyzed using Scatchard and Hill transformations and the Ki values of the compounds determined using logit-log transformations. Calculations and regression analysis were performed using templates developed for Lotus 1, 2, 3 as previously described [Pullan, L. M. "Automated Radioligand Receptor Binding Analysis with Templates for Lotus", Computer Appln. Biosci., 3 131 (1987)]. Binding results are reported in Table II for example compounds of the invention.

NMDA receptor = details: cited from earlier work; for reversal of NMDA antagonist activity / blocking effect by glycine: presence of glycine
Cerebellar cGMP = assay: Assay for effect on cGMP (cerebellum, intracisternal injection); format: in vivo, Swiss Hausche mice; details: D-Serine (100 μg) alone, ± SEM
Procedure: Male Swiss Hausche mice (25-30 g) were injected intracisternally (i.c.t.) with glycine agonists 10 minutes prior to sacrifice by focussed microwave irradiation. Compounds of the invention were injected intracisternally 2 minutes prior to the agonist. For intracisternal injections, al agonists were dissolved in HCl and diluted with isotonic saline prior to adjustment of the pH to between 6 and 7 with NaOH. The compounds of the invention were dissolved in isotonic saline and all compounds were administered in a volume of 5 μl.
Hydrochloric acid in extracts of the cerebellum were freeze-dried for assay of cGMP with a commercial RIA kit (NEN). Protein determinations (Lowery) and statistics (Dunett's t-test) were performed as described previously [P. L. Wcod et al., Neurochem., 19, 975-982 (1980)]. Groups consisted of 7-10 mice.

[4] = IC50, 1.0 μM Gly, 1.0 μM glycine

| Compound | Ki [1] [µM] | IC50 [2, 4] [µM] | IC50 ([2]; IC50, 10 μM Gly, 10 μM glycine) [µM] | NMDA antagonist activity (NMDA receptor) | reversal of NMDA antagonist activity / blocking effect by glycine (NMDA receptor) | also measured |
| --- | --- | --- | --- | --- | --- | --- |
| CC(C)OC(=O)Cc1c(C(=O)O)[nH]c2cc(Cl)ccc12 [Compound No. 35, 2-propyl 2-carboxy-6-chloro-3-indoleacetate] | 3.9 | 4.5 ± 0.5 | 68.5 ± 13.5 |  |  | activity at 300 µM (hippocampal slice; read-out: Burst duration): 19.2%; activity at 300 µM (hippocampal slice; read-out: Primary population spike amplitude): 82.1%; activity at 300 µM (hippocampal slice; read-out: Spontaneous activity): 0%; activity at 300 µM (hippocampal slice; read-out: Sum of additional population spike amplitude): 35.6% |
| CCOC(=O)Cc1c(C(=O)O)[nH]c2cc(Cl)ccc12 [compound 31, ethyl 2-carboxy-6-chloro-3-indoleacetate] | 0.47 | 1.6 ± 0.01 | 16.1 ± 1.4 |  |  | Ki [3]: > 100 µM |
| O=C(O)c1cc(O)c2ccc(Cl)cc2n1 [7-chlorokynurenic acid] |  |  |  | NMDA antagonist | blocking effect can be reversed by glycine |  |
| NC(=O)Cc1c(C(=O)O)[nH]c2cc(Cl)ccc12 [compound 37, 2-carboxy-6-chloro-3-indoleacetamide] | 1.2 | 3.4 ± 0.9 |  |  |  |  |
| O=C(O)c1cc(O)c2ccccc2n1 [kynurenic acid, 2-carboxy-4-hydroxyquinoline] |  |  |  | known NMDA antagonist | can be reversed by the presence of glycine |  |
| N[C@H](CO)C(=O)O [D-Serine, reference compound] |  |  |  |  |  | Cerebellar cGMP (Cerebellar cGMP): 17.5 ± 2.4 pmol/mg protein |
